Ring closure, isolated yield data for 10 molecules are collected here from paper PMC8162405.

The nature of the data set: Double amide coupling of bis-quinoline diacid with diamine (bis-indole diamine 5, or 1,5-pentanediamine for the precursor of 17); TCFH (4 equiv), N-methylimidazole (8 equiv); diamine (ca. 1.1-1.2 equiv, 6 mM in DMF) added at 20 uL/min to the activated diacid; intermolecular amide first, then intramolecular amide closure. Conditions: the molecule shown is the open-chain precursor, 2.0 mM.

Take `Nc1ccc2[nH]cc(Cc3c[nH]c4ccc(NC(=O)c5cnc6ccc(NC(=O)CCCCCCC(=O)Nc7ccc8ncc(C(=O)O)cc8c7)cc6c5)cc34)c2c1` [13a4 (from 12a4 + 5)]: the ring closure, isolated yield (33-membered ring) is 21%.

Consider `NCCCCCNC(=O)c1cnc2ccc(NC(=O)CCCCC(=O)Nc3ccc4ncc(C(=O)O)cc4c3)cc2c1` [precursor of 17 (from 12a2 + 1,5-pentanediamine)], for which the ring closure, isolated yield (27-membered ring) came out at 15%.

Consider `CC(C)(C)OC(=O)N(CCC(=O)Nc1ccc2cc(C(=O)O)cnc2c1)CCC(=O)Nc1ccc2cc(C(=O)Nc3ccc4[nH]cc(Cc5c[nH]c6ccc(N)cc56)c4c3)cnc2c1` [13b1 (from 12b1 + 5)], for which the ring closure, isolated yield (34-membered ring) came out at 21%.

In the case of `Nc1ccc2[nH]cc(Cc3c[nH]c4ccc(NC(=O)c5cnc6ccc(NC(=O)CCCCCC(=O)Nc7ccc8ncc(C(=O)O)cc8c7)cc6c5)cc34)c2c1` [13a3 (from 12a3 + 5)], under “32-membered ring”, the ring closure, isolated yield is 20%.

On to `Nc1ccc2[nH]cc(Cc3c[nH]c4ccc(NC(=O)c5cnc6cc(NC(=O)CCCCC(=O)Nc7ccc8cc(C(=O)O)cnc8c7)ccc6c5)cc34)c2c1` [13b2 (from 12b2 + 5)], for which, where the note is “33-membered ring”, the ring closure, isolated yield was found to be 21%.

On to `Nc1ccc2[nH]cc(Cc3c[nH]c4ccc(NC(=O)c5cnc6ccc(NC(=O)CCCCC(=O)Nc7ccc8ncc(C(=O)O)cc8c7)cc6c5)cc34)c2c1` [13a2 (from 12a2 + 5)], for which the ring closure, isolated yield (31-membered ring) is 21%.

As for `CC(C)(C)OC(=O)N(CC(=O)Nc1ccc2ncc(C(=O)O)cc2c1)CC(=O)Nc1ccc2ncc(C(=O)Nc3ccc4[nH]cc(Cc5c[nH]c6ccc(N)cc56)c4c3)cc2c1` [13a1 (from 12a1 + 5)], the ring closure, isolated yield (30-membered ring) came to 23%.

Take `Nc1ccc2[nH]cc(Cc3c[nH]c4ccc(NC(=O)c5cnc6cc(NC(=O)CCCCCCC(=O)Nc7ccc8cc(C(=O)O)cnc8c7)ccc6c5)cc34)c2c1` [13b4 (from 12b4 + 5)]: the ring closure, isolated yield (35-membered ring) came out at 27%.

As for `Nc1ccc2[nH]cc(Cc3c[nH]c4ccc(NC(=O)c5cnc6cc(NC(=O)CCCCCC(=O)Nc7ccc8cc(C(=O)O)cnc8c7)ccc6c5)cc34)c2c1` [13b3 (from 12b3 + 5)], the ring closure, isolated yield (34-membered ring) amounted to 20%.

In the case of `Nc1ccc2[nH]cc(Cc3c[nH]c4ccc(NC(=O)c5cnc6cc(NC(=O)CCCCCCCC(=O)Nc7ccc8cc(C(=O)O)cnc8c7)ccc6c5)cc34)c2c1` [13b5 (from 12b5 + 5)], the ring closure, isolated yield (36-membered ring) came to 23%.
